PubChem BioAssay (NCI)
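The concentration for 50% growth inhibition is given as GI50. TGI: concentration producing complete growth inhibition.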

Experiments:
Test in all cases: growth of human tumour cells (NCI), 384-well format
786-0 renal = tested on: 786-0 renal
A498 renal = tested on: A498 renal
A549 NSCLC = tested on: A549 NSCLC
ACHN renal = tested on: ACHN renal
BT-549 breast = tested on: BT-549 breast
CAKI-1 renal = tested on: CAKI-1 renal
CCRF-CEM leukemia = tested on: CCRF-CEM leukemia
COLO 205 colon = tested on: COLO 205 colon
DU-145 prostate = tested on: DU-145 prostate
EKVX NSCLC = tested on: EKVX NSCLC
HCC-2998 colon = tested on: HCC-2998 colon
HCT-15 colon = tested on: HCT-15 colon
HL-60(TB) leukemia = tested on: HL-60(TB) leukemia
HOP-62 NSCLC = tested on: HOP-62 NSCLC
HOP-92 NSCLC = tested on: HOP-92 NSCLC
HS 578T breast = tested on: HS 578T breast
HT29 colon = tested on: HT29 colon
IGROV1 ovarian = tested on: IGROV1 ovarian
K-562 leukemia = tested on: K-562 leukemia
KM12 colon = tested on: KM12 colon
LOX IMVI melanoma = tested on: LOX IMVI melanoma
M14 melanoma = tested on: M14 melanoma
MALME-3M melanoma = tested on: MALME-3M melanoma
MCF7 breast = tested on: MCF7 breast
MDA-MB-231 breast = tested on: MDA-MB-231 breast
MDA-MB-435 melanoma = tested on: MDA-MB-435 melanoma
MDA-MB-468 breast = tested on: MDA-MB-468 breast
MOLT-4 leukemia = tested on: MOLT-4 leukemia
NCI-H226 lung = tested on: NCI-H226 lung
NCI-H23 lung = tested on: NCI-H23 lung
NCI-H322M lung = tested on: NCI-H322M lung
NCI-H460 NSCLC = tested on: NCI-H460 NSCLC
NCI-H522 lung = tested on: NCI-H522 lung
NCI/ADR-RES ovarian = tested on: NCI/ADR-RES ovarian
OVCAR-3 ovarian = tested on: OVCAR-3 ovarian
OVCAR-4 ovarian = tested on: OVCAR-4 ovarian
OVCAR-5 ovarian = tested on: OVCAR-5 ovarian
OVCAR-8 ovarian = tested on: OVCAR-8 ovarian
PC-3 prostate = tested on: PC-3 prostate
RPMI-8226 leukemia = tested on: RPMI-8226 leukemia
RXF 393 renal = tested on: RXF 393 renal
SF-268 CNS = tested on: SF-268 CNS
SF-295 CNS = tested on: SF-295 CNS
SF-539 CNS = tested on: SF-539 CNS
SK-MEL-28 melanoma = tested on: SK-MEL-28 melanoma
SK-MEL-5 melanoma = tested on: SK-MEL-5 melanoma
SK-OV-3 ovarian = tested on: SK-OV-3 ovarian
SN12C renal = tested on: SN12C renal
SNB-19 CNS = tested on: SNB-19 CNS
SNB-75 CNS = tested on: SNB-75 CNS
SR leukemia = tested on: SR leukemia
SW-620 colon = tested on: SW-620 colon
T-47D breast = tested on: T-47D breast
TK-10 renal = tested on: TK-10 renal
U251 glioblastoma = tested on: U251 glioblastoma
UACC-257 melanoma = tested on: UACC-257 melanoma
UACC-62 melanoma = tested on: UACC-62 melanoma
UO-31 renal = tested on: UO-31 renal
HCT-116 colon = tested on: HCT-116 colon
SK-MEL-2 melanoma = tested on: SK-MEL-2 melanoma

## c1ccc(-c2nn3c(c2-c2ccnc4cc(OCCN5CCOCC5)ccc24)CCC3)nc1
786-0 renal
  GI50: > 100 µM
  TGI: > 100 µM
A498 renal
  GI50: > 100 µM
  TGI: > 100 µM
A549 NSCLC
  GI50: 29.9 µM
  TGI: > 100 µM
ACHN renal
  GI50: 66.9 µM
  TGI: > 100 µM
BT-549 breast
  GI50: > 100 µM
  TGI: > 100 µM
CAKI-1 renal
  GI50: 62.4 µM
  TGI: > 100 µM
CCRF-CEM leukemia
  GI50: 39.3 µM
  TGI: > 100 µM
COLO 205 colon
  GI50: 37.9 µM
  TGI: > 100 µM
DU-145 prostate
  GI50: > 100 µM
  TGI: > 100 µM
EKVX NSCLC
  GI50: > 100 µM
  TGI: > 100 µM
HCC-2998 colon
  GI50: > 100 µM
  TGI: > 100 µM
HCT-15 colon
  GI50: 37.3 µM
  TGI: > 100 µM
HL-60(TB) leukemia
  GI50: > 100 µM
  TGI: > 100 µM
HOP-62 NSCLC
  GI50: > 100 µM
  TGI: > 100 µM
HOP-92 NSCLC
  GI50: 85.6 µM
  TGI: > 100 µM
HS 578T breast
  GI50: > 100 µM
  TGI: > 100 µM
HT29 colon
  GI50: 48.2 µM
  TGI: > 100 µM
IGROV1 ovarian
  GI50: > 100 µM
  TGI: > 100 µM
K-562 leukemia
  GI50: 23.4 µM
  TGI: > 100 µM
KM12 colon
  GI50: 85.1 µM
  TGI: > 100 µM
LOX IMVI melanoma
  GI50: > 100 µM
  TGI: > 100 µM
M14 melanoma
  GI50: > 100 µM
  TGI: > 100 µM
MALME-3M melanoma
  GI50: > 100 µM
  TGI: > 100 µM
MCF7 breast
  GI50: 24.9 µM
  TGI: > 100 µM
MDA-MB-231 breast
  GI50: > 100 µM
  TGI: > 100 µM
MDA-MB-435 melanoma
  GI50: > 100 µM
  TGI: > 100 µM
MDA-MB-468 breast
  GI50: 40.3 µM
  TGI: > 100 µM
MOLT-4 leukemia
  GI50: 4.62 µM
  TGI: 17.4 µM
NCI-H226 lung
  GI50: > 100 µM
  TGI: > 100 µM
NCI-H23 lung
  GI50: > 100 µM
  TGI: > 100 µM
NCI-H322M lung
  GI50: > 100 µM
  TGI: > 100 µM
NCI-H460 NSCLC
  GI50: 51.3 µM
  TGI: > 100 µM
NCI-H522 lung
  GI50: 58.2 µM
  TGI: > 100 µM
NCI/ADR-RES ovarian
  GI50: > 100 µM
  TGI: > 100 µM
OVCAR-3 ovarian
  GI50: > 100 µM
  TGI: > 100 µM
OVCAR-4 ovarian
  GI50: > 100 µM
  TGI: > 100 µM
OVCAR-5 ovarian
  GI50: > 100 µM
  TGI: > 100 µM
OVCAR-8 ovarian
  GI50: > 100 µM
  TGI: > 100 µM
PC-3 prostate
  GI50: > 100 µM
  TGI: > 100 µM
RPMI-8226 leukemia
  GI50: 48 µM
  TGI: > 100 µM
RXF 393 renal
  GI50: > 100 µM
  TGI: > 100 µM
SF-268 CNS
  GI50: > 100 µM
  TGI: > 100 µM
SF-295 CNS
  GI50: > 100 µM
  TGI: > 100 µM
SF-539 CNS
  GI50: > 100 µM
  TGI: > 100 µM
SK-MEL-28 melanoma
  GI50: > 100 µM
  TGI: > 100 µM
SK-MEL-5 melanoma
  GI50: 16.2 µM
  TGI: > 100 µM
SK-OV-3 ovarian
  GI50: > 100 µM
  TGI: > 100 µM
SN12C renal
  GI50: > 100 µM
  TGI: > 100 µM
SNB-19 CNS
  GI50: > 100 µM
  TGI: > 100 µM
SNB-75 CNS
  GI50: > 100 µM
  TGI: > 100 µM
SR leukemia
  GI50: 40.3 µM
  TGI: > 100 µM
SW-620 colon
  GI50: > 100 µM
  TGI: > 100 µM
T-47D breast
  GI50: > 100 µM
  TGI: > 100 µM
TK-10 renal
  GI50: > 100 µM
  TGI: > 100 µM
U251 glioblastoma
  GI50: > 100 µM
  TGI: > 100 µM
UACC-257 melanoma
  GI50: > 100 µM
  TGI: > 100 µM
UACC-62 melanoma
  GI50: > 100 µM
  TGI: > 100 µM
UO-31 renal
  GI50: > 100 µM
  TGI: > 100 µM

## COc1ccc([C@H](CC(=O)O)N2CCN(CCCc3ccc4c(n3)NCCC4)C2=O)cn1
786-0 renal
  GI50: 0.495 µM
  TGI: 24.9 µM
A498 renal
  GI50: 0.0192 µM
  TGI: 1.04 µM
A549 NSCLC
  GI50: 7.2 µM
  TGI: > 100 µM
ACHN renal
  GI50: 0.516 µM
  TGI: 52.3 µM
BT-549 breast
  GI50: 0.162 µM
  TGI: 0.564 µM
CAKI-1 renal
  GI50: 0.023 µM
  TGI: 0.132 µM
CCRF-CEM leukemia
  GI50: 34.7 µM
  TGI: > 100 µM
COLO 205 colon
  GI50: 36.8 µM
  TGI: > 100 µM
DU-145 prostate
  GI50: 1.13 µM
  TGI: > 100 µM
HCC-2998 colon
  GI50: 42.9 µM
  TGI: > 100 µM
HCT-116 colon
  GI50: 35.3 µM
  TGI: > 100 µM
HCT-15 colon
  GI50: 44.7 µM
  TGI: > 100 µM
HL-60(TB) leukemia
  GI50: > 100 µM
  TGI: > 100 µM
HOP-62 NSCLC
  GI50: 1.24 µM
  TGI: 21.7 µM
HOP-92 NSCLC
  GI50: 0.166 µM
  TGI: 0.933 µM
HT29 colon
  GI50: 32.5 µM
  TGI: > 100 µM
IGROV1 ovarian
  GI50: 0.914 µM
  TGI: 15.9 µM
K-562 leukemia
  GI50: 65.8 µM
  TGI: > 100 µM
KM12 colon
  GI50: 55.7 µM
  TGI: > 100 µM
LOX IMVI melanoma
  GI50: 21.1 µM
  TGI: 67.1 µM
M14 melanoma
  GI50: 40.6 µM
  TGI: > 100 µM
MALME-3M melanoma
  GI50: 25.4 µM
  TGI: > 100 µM
MCF7 breast
  GI50: 30.6 µM
  TGI: > 100 µM
MDA-MB-231 breast
  GI50: 1.73 µM
  TGI: 78.3 µM
MDA-MB-435 melanoma
  GI50: 96.3 µM
  TGI: > 100 µM
MDA-MB-468 breast
  GI50: 23.3 µM
  TGI: 68.8 µM
MOLT-4 leukemia
  GI50: 21.5 µM
  TGI: 66.3 µM
NCI-H226 lung
  GI50: 1.61 µM
  TGI: 42.6 µM
NCI-H23 lung
  GI50: > 100 µM
  TGI: > 100 µM
NCI-H322M lung
  GI50: 52.6 µM
  TGI: > 100 µM
NCI-H460 NSCLC
  GI50: 20.3 µM
  TGI: > 100 µM
NCI-H522 lung
  GI50: 0.151 µM
  TGI: 14.6 µM
NCI/ADR-RES ovarian
  GI50: > 100 µM
  TGI: > 100 µM
OVCAR-3 ovarian
  GI50: 13.3 µM
  TGI: > 100 µM
OVCAR-4 ovarian
  GI50: 0.0228 µM
  TGI: 15.2 µM
OVCAR-5 ovarian
  GI50: 0.0927 µM
  TGI: 62.9 µM
OVCAR-8 ovarian
  GI50: 11.7 µM
  TGI: > 100 µM
PC-3 prostate
  GI50: 29.1 µM
  TGI: > 100 µM
RPMI-8226 leukemia
  GI50: 7.91 µM
  TGI: 21.1 µM
RXF 393 renal
  TGI: 0.0412 µM
SF-268 CNS
  GI50: 0.336 µM
  TGI: 28.1 µM
SF-295 CNS
  GI50: 41.1 µM
  TGI: > 100 µM
SF-539 CNS
  GI50: 10.1 µM
  TGI: 49.2 µM
SK-MEL-2 melanoma
  GI50: 0.0476 µM
  TGI: > 100 µM
SK-MEL-28 melanoma
  GI50: 44.5 µM
  TGI: > 100 µM
SK-MEL-5 melanoma
  GI50: 83.8 µM
  TGI: > 100 µM
SK-OV-3 ovarian
  GI50: 3.35 µM
  TGI: 65.4 µM
SN12C renal
  GI50: 36.7 µM
  TGI: > 100 µM
SNB-19 CNS
  GI50: 0.302 µM
  TGI: > 100 µM
SR leukemia
  GI50: 31.5 µM
  TGI: 86.5 µM
SW-620 colon
  GI50: 88.2 µM
  TGI: > 100 µM
T-47D breast
  GI50: 14.2 µM
  TGI: 51 µM
TK-10 renal
  GI50: 0.0253 µM
  TGI: 0.13 µM
U251 glioblastoma
  GI50: 0.561 µM
  TGI: > 100 µM
UACC-257 melanoma
  GI50: 44.7 µM
  TGI: > 100 µM
UACC-62 melanoma
  GI50: 38 µM
  TGI: > 100 µM
UO-31 renal
  GI50: 1.29 µM
  TGI: 8.86 µM
